Laboratory results from patent US10941157B2, “Pesticidal compositions and uses thereof” (Gilead Apollo, LLC, priority 2015, dated 2021).
≈ marks a conversion by molar mass, not a printed value. Read-outs that look alike come from different tables or passages of the source.

How the values were obtained:
Type in all cases: cell-based
Botrtyis cinerea (Bc) = experiment: In vitro pathogen growth inhibition assay, Bc; conditions: 48 h
In short: (§1)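 Spores in 17% V8 liquid medium, or 1.5 mm Rs mycelial plugs in ¼ PDB, incubated with compound; final concentration checked by OD600 for precipitation. OD readings at 24 and 48 h, blank-subtracted, plus visual ratings; value is concentration giving ≥90% growth inhibition.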

[1] = tested on: Collectotrichum graminicola (Cg); experiment: In vitro pathogen growth inhibition assay, Cg; conditions: 48 h
In short: as §1

Diplodia maydis (Dm) = experiment: In vitro pathogen growth inhibition assay, Dm; conditions: Stenocarpella maydis, 48 h
In short: (§2)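 Spores of Dm, Fv and Pc were diluted in 17% V8 liquid medium; Rs used 1.5 mm mycelial plugs in ¼ PDB. Compounds from 2.5 mg/ml DMSO stocks were combined with inoculum, growth was read by OD600 at 24 and 48 h with blank subtraction, and the reported value is the concentration giving ≥90% inhibition.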

[2] = tested on: Fusarium moniliforme (Fm); experiment: In vitro pathogen growth inhibition assay, Fm; conditions: Fusarium verticillioides
In short: as §1

[3] = tested on: Fusarium virguliforme (Fv); experiment: In vitro pathogen growth inhibition assay, Fv
In short: as §2

[4] = tested on: Phytophthora capsici (Pc); experiment: In vitro pathogen growth inhibition assay, Pc; conditions: 48 h
In short: as §2

Rhizoctonia solani (Rs) = experiment: In vitro pathogen growth inhibition assay, Rs (mycelial plugs); conditions: Rhizoctonia solani, 48 h, mycelial plugs
In short: as §2

Septoria tritici (St) = experiment: In vitro pathogen growth inhibition assay, St; conditions: Zymoseptoria tritici, 48 h
In short: as §1

[5] = ≥90% inhibition, 48 hours vs 2% DMSO control, read-out: Compound Concentration (ppm) sufficient for ≥90% inhibition of growth, Bc
[6] = ≥90% inhibition, 48 hours vs 2% DMSO control, read-out: Compound Concentration (ppm) sufficient for ≥90% inhibition of growth, Cg
[7] = ≥90% inhibition, 48 hours vs 2% DMSO control, read-out: Compound Concentration (ppm) sufficient for ≥90% inhibition of growth, Dm
[8] = ≥90% inhibition, 48 hours vs 2% DMSO control, read-out: Compound Concentration (ppm) sufficient for ≥90% inhibition of growth, Fm
[9] = ≥90% inhibition, 48 hours vs 2% DMSO control, read-out: Compound Concentration (ppm) sufficient for ≥90% inhibition of growth, Fv
[10] = ≥90% inhibition, 48 hours vs 2% DMSO control, read-out: Compound Concentration (ppm) sufficient for ≥90% inhibition of growth, Pc
[11] = ≥90% inhibition, 48 hours vs 2% DMSO control, read-out: Compound Concentration (ppm) sufficient for ≥90% inhibition of growth, Rs
[12] = ≥90% inhibition, 48 hours vs 2% DMSO control, read-out: Compound Concentration (ppm) sufficient for ≥90% inhibition of growth, St
[13] = ≥90% growth inhibition, 48 hours, vs 2% DMSO control, read-out: Compound Concentration (ppm) sufficient for ≥90% inhibition of Bc
[14] = ≥90% growth inhibition, 48 hours, vs 2% DMSO control, read-out: Compound Concentration (ppm) sufficient for ≥90% inhibition of Cg
[15] = ≥90% growth inhibition, 48 hours, vs 2% DMSO control, read-out: Compound Concentration (ppm) sufficient for ≥90% inhibition of Dm
[16] = ≥90% growth inhibition, 48 hours, vs 2% DMSO control, read-out: Compound Concentration (ppm) sufficient for ≥90% inhibition of Fm
[17] = ≥90% growth inhibition, 48 hours, vs 2% DMSO control, read-out: Compound Concentration (ppm) sufficient for ≥90% inhibition of Fv
[18] = ≥90% growth inhibition, 48 hours, vs 2% DMSO control, read-out: Compound Concentration (ppm) sufficient for ≥90% inhibition of Pc
[19] = ≥90% growth inhibition, 48 hours, vs 2% DMSO control, read-out: Compound Concentration (ppm) sufficient for ≥90% inhibition of Rs
[20] = ≥90% growth inhibition, 48 hours, vs 2% DMSO control, read-out: Compound Concentration (ppm) sufficient for ≥90% inhibition of St

SMILES	IC90 (Botrtyis cinerea (Bc); [5]) [µg/mL]	IC90 [1, 6] [µg/mL]	IC90 (Diplodia maydis (Dm); [7]) [µg/mL]	IC90 [2, 8] [µg/mL]	IC90 [3, 9] [µg/mL]	IC90 [4, 10] [µg/mL]	IC90 (Rhizoctonia solani (Rs); [11]) [µg/mL]	IC90 (Septoria tritici (St); [12]) [µg/mL]	IC90 (Botrtyis cinerea (Bc); [13]) [µg/mL]	IC90 [1, 14] [µg/mL]	IC90 (Diplodia maydis (Dm); [15]) [µg/mL]	IC90 [2, 16] [µg/mL]	IC90 [3, 17] [µg/mL]	IC90 [4, 18] [µg/mL]	IC90 (Rhizoctonia solani (Rs); [19]) [µg/mL]	IC90 (Septoria tritici (St); [20]) [µg/mL]
COc1ccccc1[C@H](Cn1c(=O)n(C(C)(C)C(=O)N2CCCCC2)c(=O)c2c(C)c(-n3nccn3)sc21)OC1CCOCC1 [Compound I-033]	0.4 (≈ 0.628 µM)	≥ 0.4	≥ 0.4	0.08 (≈ 0.126 µM)	0.4 (≈ 0.628 µM)	> 50	0.08 (≈ 0.126 µM)	> 10								
COc1ccc(F)cc1[C@H](Cn1c(=O)n(C(C)(C)C(=O)N2CCCC2)c(=O)c2c(C)c(-n3cccn3)sc21)OC[C@@H](C)O [Compound I-135]	2 (≈ 3.26 µM)	10 (≈ 16.3 µM)	≥ 10	0.4 (≈ 0.652 µM)	2 (≈ 3.26 µM)	> 50	≥ 2	50 (≈ 81.5 µM)								
CCOC(=O)c1sc2c(c1C)c(=O)n([C@@H](C)C(=O)NC(C)C)c(=O)n2C[C@H](OCCC#N)c1cc(F)ccc1OC [Compound I-219]									2 (≈ 3.4 µM)	10 (≈ 17 µM)	> 10	0.4 (≈ 0.68 µM)	≥ 10	> 50	> 50	> 50
COc1ccc(F)cc1[C@H](Cn1c(=O)n([C@@H](C)C(=O)N2CCCC2)c(=O)c2c(C)c(-n3nccn3)sc21)OC(C)C [Compound I-058]	0.4 (≈ 0.684 µM)	0.08 (≈ 0.137 µM)	0.08 (≈ 0.137 µM)	0.08 (≈ 0.137 µM)	0.08 (≈ 0.137 µM)	≥ 10	0.4 (≈ 0.684 µM)	> 50								
COc1ccc(F)cc1[C@H](Cn1c(=O)n(CC(=O)NC(C)C)c(=O)c2c(C)c(-n3nccn3)sc21)OCCO [Compound I-087]	2 (≈ 3.57 µM)	2 (≈ 3.57 µM)	> 50	0.08 (≈ 0.143 µM)	2 (≈ 3.57 µM)	> 50	2 (≈ 3.57 µM)	> 50								
COc1ccccc1[C@H](Cn1c(=O)n(C(C)(C)C(=O)N2CCCC2)c(=O)c2c(C)c(-n3cccn3)sc21)OCC(C)C [Compound I-120]	2 (≈ 3.37 µM)	2 (≈ 3.37 µM)	2 (≈ 3.37 µM)	0.4 (≈ 0.674 µM)	10 (≈ 16.8 µM)	> 50	2 (≈ 3.37 µM)	> 50								
CNC(=O)C(C)(C)n1c(=O)c2c(C)c(-n3nccn3)sc2n(C[C@H](OC(C)C)c2cc(F)ccc2OC)c1=O [Compound I-132]	2 (≈ 3.58 µM)	≥ 2	10 (≈ 17.9 µM)	0.4 (≈ 0.716 µM)	0.4 (≈ 0.716 µM)	> 50	≥ 2	> 50								
COc1ccc(F)cc1[C@H](Cn1c(=O)n(C(C)(C)C(=O)NC(C)C)c(=O)c2c(C)c(-n3nccn3)sc21)OC[C@H](C)O [Compound I-066]	≥ 0.4	≥ 0.4	≥ 0.4	0.08 (≈ 0.133 µM)	0.4 (≈ 0.664 µM)	50 (≈ 83 µM)	≥ 0.4	≥ 10								
COc1ccc(F)cc1[C@@H](O)Cn1c(=O)n(C(C)(C)C(=O)N2CCCC2)c(=O)c2c(C)c(-n3nccn3)sc21 [Compound I-214]									2 (≈ 3.59 µM)	2 (≈ 3.59 µM)	≥ 10	0.4 (≈ 0.719 µM)	2 (≈ 3.59 µM)	> 50	0.08 (≈ 0.144 µM)	> 50
COCCO[C@@H](Cn1c(=O)n(C(C)(C)C(=O)N2CCCC2)c(=O)c2c(C)c(-n3nccn3)sc21)c1cc(F)ccc1C [Compound I-249]									2 (≈ 3.34 µM)	2 (≈ 3.34 µM)	≥ 10	2 (≈ 3.34 µM)	2 (≈ 3.34 µM)	> 50	10 (≈ 16.7 µM)	> 50
